Measurements taken from US6706663B2, “Herbicidal 3-heterocyclic substituted benzisothiazole and benzisoxazole compounds” (Wyeth, priority 2000, dated 2004).

Assays:
[1] = test system: AMBEL (Ambrosia artemisifolia); assay: Postemergence herbicidal evaluation; format: in vivo, L.; conditions: for AMBEL herbicidal rating: postemergence
Summary of the method: (§1)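 Visual 0–9 injury scores versus control plants, covering stand, vigour, malformation, size, chlorosis and general appearance, taken four to five weeks post-spray and averaged over replicate tests. Plants were sprayed at roughly two weeks old and held on greenhouse benches.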

[2] = test system: CASOB (Cassia obtusifolia); assay: Postemergence herbicidal evaluation; format: in vivo, L.; conditions: for CASOB herbicidal rating: postemergence
Summary of the method: as §1

[3] = test system: CHEAL (Chenopodium album); assay: Postemergence herbicidal evaluation; format: in vivo, L.; conditions: for CHEAL herbicidal rating: postemergence
Summary of the method: as §1

[4] = test system: TRZAWR (Wheat, Winter, cv Riband); assay: Postemergence herbicidal evaluation; format: in vivo, Triticum aestivum; conditions: for TRZAWR herbicidal rating: postemergence
Summary of the method: as §1

[5] = test system: ABUTH (Abutilon theophrasti); assay: Preemergence herbicidal evaluation; format: in vivo, Medic.; conditions: rated 4-5 weeks after treatment
GALAP (Galium aparine) = assay: Preemergence herbicidal evaluation; format: in vivo; conditions: rated 4-5 weeks after treatment
Summary of the method: (§2)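 Steps: mix seeds with potting soil; plant on ~1 inch soil per cup; spray compound in aqueous acetone; hold on greenhouse benches with routine watering; rate 0–9 visually against control at 4–5 weeks.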

[6] = test system: GLXMAW (Soybean, Williams); assay: Preemergence herbicidal evaluation; format: in vivo, Glycine max, (L.) Merr. cv Williams; conditions: rated 4-5 weeks after treatment
[7] = test system: TRZAWR (Wheat, Winter, cv Riband); assay: Preemergence herbicidal evaluation; format: in vivo, Triticum aestivum; conditions: rated 4-5 weeks after treatment
Summary of the method: as §2

ZEAMX (Corn, Field) = assay: Preemergence herbicidal evaluation; format: in vivo, Zea mays, L.; conditions: rated 4-5 weeks after treatment
[8] = test system: CYPSE (Cyperus serotinus); assay: Flooded paddy, preemergence weed control; format: in vivo, Rottb.; conditions: rated 3-4 weeks after treatment, 0-9 rating scale
Summary of the method: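 Herbicidal effect was scored visually on a 0–9 scale against an untreated control 3–4 weeks after treatment. Compounds were applied preemergence as 50/50 v/v aqueous/acetone mixtures into flood water (1.5–3 cm deep over silt loam), at roughly 0.0080 to 0.1250 kg/ha active ingredient.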

[9] = test system: ECHORC (Echinochloa oryzoides); assay: Flooded paddy, postemergence weed control; format: in vivo, Echinochloa oryzoides (Ard.) Fritsch.; conditions: postemergence weeds, rated 3-4 weeks after treatment
Summary of the method: (§3)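 Weeds 3 to 5 cm tall plus rice seedlings at the 1.5 to 2.5 leaf stage were flooded, water held 1.5 to 3 cm above soil. Compounds in 50/50 v/v aqueous/acetone went directly into flood water at about 0.0320 to 0.2500 kg/ha. Greenhouse, 3 to 4 weeks; visual 0-9 rating versus control.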

CYPIR (Cyperus iria) = assay: Flooded paddy, postemergence weed control; format: in vivo; conditions: postemergence weeds, rated 3-4 weeks after treatment
Description: Results of herbicide evaluation are expressed on a rating scale (0-9). The scale is based upon a visual observation of plant stand, vigor, malformation, size, chlorosis and overall plant appearance as compared with a control.
Plastic containers containing weeds which are 3 to 5 cm tall and rice seedlings at the 1.5 to 2.5 leaf stage are flooded with water. The water is maintained at 1.5 to 3 cm above the soil surface for the duration of the experiment. Test compounds are applied as aqueous/acetone mixtures 50/50 v/v directly into the flood water to provide the equivalent of about 0.0320 to 0.2500 kg/ha of active ingredient. The treated containers are placed on greenhouse benches and cared for in accordance with conventional greenhouse procedures. Three to four weeks after treatment, the test is terminated and each container is examined and herbicidal effect rated according to the rating system provided in Example 87. The compounds evaluated are identified in Example 87 and plant species used are identified in Example 89.

[10] = test system: CYPSE (Cyperus serotinus); assay: Flooded paddy, postemergence weed control; format: in vivo, Rottb.; conditions: postemergence weeds, rated 3-4 weeks after treatment
Summary of the method: as §3

[11] = test system: MOOVA (Monochoria vaginalis); assay: Flooded paddy, postemergence weed control; format: in vivo, Presl.; conditions: postemergence weeds, rated 3-4 weeks after treatment
Summary of the method: as §3

[12] = test system: SAGPY (Sagittaria pygmaea); assay: Flooded paddy, postemergence weed control; format: in vivo, L.; conditions: postemergence weeds, rated 3-4 weeks after treatment
Summary of the method: as §3

ORYSAT (Rice, Tebonnet) = assay: Flooded paddy, post-transplant and postemergence rice tolerance; format: in vivo, Oryza sativa, (L.) Tebonnet; conditions: post-transplant rice, rated 3-4 weeks after treatment
Summary of the method: as §3

## 1-methyl-3-[3-(1,3-oxathian-2-yl)-1,2-benzisothiazol-5-yl]-6-(trifluoromethyl)uracil S′,S′-dioxide [Compound 35]
[1]; rate 0.0320 kg/ha
  AMBEL herbicidal rating: 4.0
  Postemergence herbicidal rating, AMBEL: 9.0
[1]; rate 0.0620 kg/ha
  AMBEL herbicidal rating: 9.0
  Postemergence herbicidal rating, AMBEL: 9.0
[2]; rate 0.0320 kg/ha
  CASOB herbicidal rating: 4.0
  Postemergence herbicidal rating, CASOB: 9.0
[2]; rate 0.0620 kg/ha
  CASOB herbicidal rating: 4.0
  Postemergence herbicidal rating, CASOB: 9.0
[3]; rate 0.0320 kg/ha
  CHEAL herbicidal rating: 7.0
  Postemergence herbicidal rating, CHEAL: 9.0
[3]; rate 0.0620 kg/ha
  CHEAL herbicidal rating: 9.0
  Postemergence herbicidal rating, CHEAL: 9.0
[4]; rate 0.0320 kg/ha
  TRZAWR herbicidal rating: 1.5
  Postemergence herbicidal rating, TRZAWR: 7.0
[4]; rate 0.0620 kg/ha
  TRZAWR herbicidal rating: 1.5
  Postemergence herbicidal rating, TRZAWR: 7.5
[5]; Rate 0.0620 kg/ha
  ABUTH preemergence herbicidal rating: 9.0
  Preemergence herbicidal rating ABUTH: 4.5
[5]; Rate 0.1250 kg/ha
  ABUTH preemergence herbicidal rating: 9.0
  Preemergence herbicidal rating ABUTH: 9.0
[5]; Rate 0.2500 kg/ha
  ABUTH preemergence herbicidal rating: 9.0
  Preemergence herbicidal rating ABUTH: 9.0
GALAP (Galium aparine); Rate 0.0620 kg/ha
  GALAP preemergence herbicidal rating: 9.0
  Preemergence herbicidal rating GALAP: 7.0
GALAP (Galium aparine); Rate 0.1250 kg/ha
  GALAP preemergence herbicidal rating: 9.0
  Preemergence herbicidal rating GALAP: 9.0
GALAP (Galium aparine); Rate 0.2500 kg/ha
  GALAP preemergence herbicidal rating: 9.0
  Preemergence herbicidal rating GALAP: 9.0
[6]; Rate 0.0620 kg/ha
  GLXMAW preemergence herbicidal rating: 8.0
  Preemergence herbicidal rating GLXMAW: 0.0
[6]; Rate 0.1250 kg/ha
  GLXMAW preemergence herbicidal rating: 9.0
  Preemergence herbicidal rating GLXMAW: 0.5
[6]; Rate 0.2500 kg/ha
  GLXMAW preemergence herbicidal rating: 9.0
  Preemergence herbicidal rating GLXMAW: 2.0
[7]; Rate 0.0620 kg/ha
  TRZAWR preemergence herbicidal rating: 7.0
  Preemergence herbicidal rating TRZAWR: 0.0
[7]; Rate 0.1250 kg/ha
  TRZAWR preemergence herbicidal rating: 9.0
  Preemergence herbicidal rating TRZAWR: 0.0
[7]; Rate 0.2500 kg/ha
  TRZAWR preemergence herbicidal rating: 9.0
  Preemergence herbicidal rating TRZAWR: 0.0
ZEAMX (Corn, Field); Rate 0.0620 kg/ha
  ZEAMX preemergence herbicidal rating: 5.5
  Preemergence herbicidal rating ZEAMX: 0.0
ZEAMX (Corn, Field); Rate 0.1250 kg/ha
  ZEAMX preemergence herbicidal rating: 9.0
  Preemergence herbicidal rating ZEAMX: 1.0
ZEAMX (Corn, Field); Rate 0.2500 kg/ha
  ZEAMX preemergence herbicidal rating: 9.0
  Preemergence herbicidal rating ZEAMX: 2.5
[8]; rate 0.0320 kg/ha
  herbicidal rating, CYPSE: 2.0
[8]; rate 0.0320 kg/ha, listed as 82
  herbicidal rating, CYPSE: 9.0
[8]; rate 0.1250 kg/ha
  herbicidal rating, CYPSE: 5.0
[8]; rate 0.1250 kg/ha, listed as 82
  herbicidal rating, CYPSE: 9.0
[9]; 0.0620 kg/ha into flood water
  herbicide rating (0-9) ECHORC: 4.0
[9]; 0.1250 kg/ha into flood water
  herbicide rating (0-9) ECHORC: 4.0
[9]; 0.2500 kg/ha into flood water
  herbicide rating (0-9) ECHORC: 9.0
CYPIR (Cyperus iria); 0.0620 kg/ha into flood water
  herbicide rating (0-9) CYPIR: 9.0
CYPIR (Cyperus iria); 0.1250 kg/ha into flood water
  herbicide rating (0-9) CYPIR: 9.0
CYPIR (Cyperus iria); 0.2500 kg/ha into flood water
  herbicide rating (0-9) CYPIR: 9.0
[10]; 0.0620 kg/ha into flood water
  herbicide rating (0-9) CYPSE: 0.0
[10]; 0.1250 kg/ha into flood water
  herbicide rating (0-9) CYPSE: 0.0
[10]; 0.2500 kg/ha into flood water
  herbicide rating (0-9) CYPSE: 9.0
[11]; 0.0620 kg/ha into flood water
  herbicide rating (0-9) MOOVA: 9.0
[11]; 0.1250 kg/ha into flood water
  herbicide rating (0-9) MOOVA: 9.0
[11]; 0.2500 kg/ha into flood water
  herbicide rating (0-9) MOOVA: 9.0
[12]; 0.0620 kg/ha into flood water
  herbicide rating (0-9) SAGPY: 0.0
[12]; 0.1250 kg/ha into flood water
  herbicide rating (0-9) SAGPY: 0.0
[12]; 0.2500 kg/ha into flood water
  herbicide rating (0-9) SAGPY: 0.0
ORYSAT (Rice, Tebonnet); 0.0620 kg/ha into flood water
  herbicide rating (0-9) ORYSAT (rice tolerance): 3.0
ORYSAT (Rice, Tebonnet); 0.1250 kg/ha into flood water
  herbicide rating (0-9) ORYSAT (rice tolerance): 4.0
ORYSAT (Rice, Tebonnet); 0.2500 kg/ha into flood water
  herbicide rating (0-9) ORYSAT (rice tolerance): 5.0

## Cc1ccc(-c2nsc3ccc(-n4c(=O)cc(C(F)(F)F)n(C)c4=O)cc23)s1 [Compound 21, 1-methyl-3-[3-(5-methyl-2-thienyl)-1,2-benzisothiazol-5-yl]-6-(trifluoromethyl)uracil]
[1]; rate 0.0320 kg/ha
  Postemergence herbicidal rating, AMBEL: 9.0
[1]; rate 0.0620 kg/ha
  Postemergence herbicidal rating, AMBEL: 9.0
[1]; rate 0.1250 kg/ha
  Postemergence herbicidal rating, AMBEL: 9.0
[2]; rate 0.0320 kg/ha
  Postemergence herbicidal rating, CASOB: 2.0
[2]; rate 0.0620 kg/ha
  Postemergence herbicidal rating, CASOB: 4.0
[2]; rate 0.1250 kg/ha
  Postemergence herbicidal rating, CASOB: 7.0
[3]; rate 0.0320 kg/ha
  Postemergence herbicidal rating, CHEAL: 7.0
[3]; rate 0.0620 kg/ha
  Postemergence herbicidal rating, CHEAL: 9.0
[3]; rate 0.1250 kg/ha
  Postemergence herbicidal rating, CHEAL: 9.0
[4]; rate 0.0320 kg/ha
  Postemergence herbicidal rating, TRZAWR: 4.0
[4]; rate 0.0620 kg/ha
  Postemergence herbicidal rating, TRZAWR: 4.5
[4]; rate 0.1250 kg/ha
  Postemergence herbicidal rating, TRZAWR: 4.5
[5]; Rate 0.0620 kg/ha
  ABUTH preemergence herbicidal rating: 4.0
[5]; Rate 0.1250 kg/ha
  ABUTH preemergence herbicidal rating: 7.5
[5]; Rate 0.2500 kg/ha
  ABUTH preemergence herbicidal rating: 9.0
GALAP (Galium aparine); Rate 0.0620 kg/ha
  GALAP preemergence herbicidal rating: 3.0
GALAP (Galium aparine); Rate 0.1250 kg/ha
  GALAP preemergence herbicidal rating: 2.0
GALAP (Galium aparine); Rate 0.2500 kg/ha
  GALAP preemergence herbicidal rating: 9.0
[6]; Rate 0.0620 kg/ha
  GLXMAW preemergence herbicidal rating: 0.0
[6]; Rate 0.1250 kg/ha
  GLXMAW preemergence herbicidal rating: 0.0
[6]; Rate 0.2500 kg/ha
  GLXMAW preemergence herbicidal rating: 2.0
[7]; Rate 0.0620 kg/ha
  TRZAWR preemergence herbicidal rating: 0.0
[7]; Rate 0.1250 kg/ha
  TRZAWR preemergence herbicidal rating: 1.0
[7]; Rate 0.2500 kg/ha
  TRZAWR preemergence herbicidal rating: 2.0
ZEAMX (Corn, Field); Rate 0.0620 kg/ha
  ZEAMX preemergence herbicidal rating: 1.0
ZEAMX (Corn, Field); Rate 0.1250 kg/ha
  ZEAMX preemergence herbicidal rating: 3.5
ZEAMX (Corn, Field); Rate 0.2500 kg/ha
  ZEAMX preemergence herbicidal rating: 4.5
[8]; rate 0.0080 kg/ha
  herbicidal rating, CYPSE: 0.0
[8]; rate 0.0320 kg/ha
  herbicidal rating, CYPSE: 4.5
[8]; rate 0.1250 kg/ha
  herbicidal rating, CYPSE: 4.5
[9]; 0.0320 kg/ha into flood water
  herbicide rating (0-9) ECHORC: 6.0
[9]; 0.0620 kg/ha into flood water
  herbicide rating (0-9) ECHORC: 9.0
[9]; 0.1250 kg/ha into flood water
  herbicide rating (0-9) ECHORC: 9.0
CYPIR (Cyperus iria); 0.0320 kg/ha into flood water
  herbicide rating (0-9) CYPIR: 9.0
CYPIR (Cyperus iria); 0.0620 kg/ha into flood water
  herbicide rating (0-9) CYPIR: 9.0
CYPIR (Cyperus iria); 0.1250 kg/ha into flood water
  herbicide rating (0-9) CYPIR: 9.0
[10]; 0.0320 kg/ha into flood water
  herbicide rating (0-9) CYPSE: 0.0
[10]; 0.0620 kg/ha into flood water
  herbicide rating (0-9) CYPSE: 0.0
[10]; 0.1250 kg/ha into flood water
  herbicide rating (0-9) CYPSE: 0.0
[11]; 0.0320 kg/ha into flood water
  herbicide rating (0-9) MOOVA: 9.0
[11]; 0.0620 kg/ha into flood water
  herbicide rating (0-9) MOOVA: 9.0
[11]; 0.1250 kg/ha into flood water
  herbicide rating (0-9) MOOVA: 9.0
[12]; 0.0320 kg/ha into flood water
  herbicide rating (0-9) SAGPY: 0.0
[12]; 0.0620 kg/ha into flood water
  herbicide rating (0-9) SAGPY: 0.0
[12]; 0.1250 kg/ha into flood water
  herbicide rating (0-9) SAGPY: 0.0
ORYSAT (Rice, Tebonnet); 0.0320 kg/ha into flood water
  herbicide rating (0-9) ORYSAT (rice tolerance): 4.0
ORYSAT (Rice, Tebonnet); 0.0620 kg/ha into flood water
  herbicide rating (0-9) ORYSAT (rice tolerance): 7.0
ORYSAT (Rice, Tebonnet); 0.1250 kg/ha into flood water
  herbicide rating (0-9) ORYSAT (rice tolerance): 7.0
